Source: US20140249135A1, “PIM KINASE INHIBITORS AND METHODS OF THEIR USE” (NOVARTIS AG, priority 2007, published 2014)

Key:
Format in all cases: biochemical
Pim1 kinase = Pim1 kinase (Homo sapiens, UniProt P11309); test: Pim1 ATP depletion assay; settings: Pim1 ATP depletion assay; read-out: PIM1 IC50;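 further: Luciferase-luciferin luminescence readout of residual ATP after PIM1 transfers phosphate to a peptide substrate, 40 µM ATP added, reaction run to roughly half ATP consumption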
Pim3 kinase = Pim3 kinase (Homo sapiens, UniProt Q86V86); test: Pim3 ATP depletion assay; settings: read-out: PIM3 IC50
Pim2 kinase = Pim2 kinase (Homo sapiens, UniProt Q9P1W9); test: Pim2 ATP depletion assay; settings: read-out: PIM2 IC50;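 further: Luciferase-based luminescent readout of ATP remaining after PIM2 phosphorylates a BAD peptide, final 5 nM enzyme, 4 µM ATP, 10 µM peptide, 2.5% DMSO, run to roughly half ATP consumption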
Sequence of Pim2 kinase (Q9P1W9 whole entry): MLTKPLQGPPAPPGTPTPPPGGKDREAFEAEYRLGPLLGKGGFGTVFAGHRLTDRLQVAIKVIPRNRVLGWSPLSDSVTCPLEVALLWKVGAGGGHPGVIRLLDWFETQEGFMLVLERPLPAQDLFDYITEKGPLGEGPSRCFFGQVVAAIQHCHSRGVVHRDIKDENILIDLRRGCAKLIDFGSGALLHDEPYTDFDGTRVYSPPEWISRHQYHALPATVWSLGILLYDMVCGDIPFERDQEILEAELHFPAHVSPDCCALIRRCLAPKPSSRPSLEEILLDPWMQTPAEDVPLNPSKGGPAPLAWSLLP

Measured: IC50

Sequence of Pim1 kinase (P11309 whole entry): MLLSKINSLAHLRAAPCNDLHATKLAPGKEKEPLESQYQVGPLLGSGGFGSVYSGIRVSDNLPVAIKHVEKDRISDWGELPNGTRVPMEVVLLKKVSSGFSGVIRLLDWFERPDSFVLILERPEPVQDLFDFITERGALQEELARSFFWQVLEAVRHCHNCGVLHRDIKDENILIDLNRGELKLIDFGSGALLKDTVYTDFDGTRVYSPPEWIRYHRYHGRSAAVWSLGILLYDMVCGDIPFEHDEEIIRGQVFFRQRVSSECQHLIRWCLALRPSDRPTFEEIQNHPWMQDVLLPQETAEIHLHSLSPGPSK

CCNC(=O)c1ccc(F)c(-c2ncc(N)c(C(=O)Nc3cnccc3N3CCC[C@H](N)C3)n2)c1 [Example 540, 5-Amino-2-(5-ethylcarbamoyl-2-fluoro-phenyl)-pyrimidine-4-carboxylic acid (3-amino-3,4,5,6-tetrahydro-2H-[1,4′]bipyridinyl-3′-yl)-amide]
< 1000 nM: all assays above

CC(C)Oc1ccc(F)c(-c2ncc(N)c(C(=O)Nc3cnccc3N3CCC[C@H](N)C3)n2)c1 [Example 541, 5-Amino-2-(2-fluoro-5-isopropoxy-phenyl)-pyrimidine-4-carboxylic acid (3-amino-3,4,5,6-tetrahydro-2H-[1,4′]bi-pyridinyl-3′-yl)-amide]
< 1000 nM: all assays above

Nc1cnc(-c2cccc(F)c2F)nc1C(=O)Nc1cnccc1N1CCC[C@H](N)C1 [Example 546, 5-Amino-2-(2,3-difluoro-phenyl)-pyrimidine-4-carboxylic acid (3-amino-3,4,5,6-tetrahydro-2H-[1,4′]bipyridinyl-3′-yl)-amide]
< 1000 nM: all assays above

CCOc1ccc(F)c(-c2ncc(N)c(C(=O)Nc3cnccc3N3CCC[C@H](N)C3)n2)c1 [Example 548, 5-Amino-2-(5-ethoxy-2-fluoro-phenyl)-pyrimidine-4-carboxylic acid (3-amino-3,4,5,6-tetrahydro-2H-[1,4′]bipyridinyl-3′-yl)-amide]
< 1000 nM: all assays above

COc1ccccc1-c1ncc(N)c(C(=O)Nc2cnccc2N2CCC[C@H](N)C2)n1 [Example 551, 5-Amino-2-(2-methoxy-phenyl)-pyrimidine-4-carboxylic acid (3-amino-3,4,5,6-tetrahydro-2H-[1,4′]bipyridinyl-3′-yl)-amide]
< 1000 nM: all assays above

CC(C)NC(=O)c1ccc(F)c(-c2cccc(C(=O)Nc3cnccc3-c3cc(N)nc(C(F)(F)F)n3)n2)c1 [Example 553, 6-(2-Fluoro-5-isopropylcarbamoyl-phenyl)-pyridine-2-carboxylic acid [4-(6 amino-2-trifluoromethyl-pyrimidin-4-yl)-pyridin-3-yl]-amide]
< 1000 nM: all assays above

CC(C)NC(=O)c1ccc(F)c(-c2ccc(N)c(C(=O)Nc3cnccc3-c3cc(N)nc(C(F)(F)F)n3)n2)c1 [Example 554, 3-Amino-6-(2-fluoro-5-isopropylcarbamoyl-phenyl)-pyridine-2-carboxylic acid [4-(6-amino-2-trifluoromethyl-pyrimidin-4-yl)-pyridin-3-yl]-amide]
< 1000 nM: all assays above

CCc1cccc(-c2ccc(N)c(C(=O)Nc3cnccc3-c3cc(N)nc(C)n3)n2)c1 [Example 555, 3-Amino-6-(3-ethyl-phenyl)-pyridine-2-carboxylic acid [4-(6-amino-2-methyl-pyrimidin-4-yl)-pyridin-3-yl]-amide]
< 1000 nM: all assays above

Cc1csc(-c2ccc(N)c(C(=O)Nc3cnccc3-c3cc(N)nc(C)n3)n2)c1 [Example 556, 3-Amino-6-(4-methyl-thiophen-2-yl)-pyridine-2-carboxylic acid [4-(6-amino-2-methyl-pyrimidin-4-yl)-pyridin-3-yl]-amide]
< 1000 nM: all assays above

Cc1nc(N)cc(-c2ccncc2NC(=O)c2nc(-c3ccc(C(F)(F)F)cc3F)ccc2N)n1 [Example 557, 3-Amino-6-(2-fluoro-4-trifluoromethyl-phenyl)-pyridine-2-carboxylic acid [4-(6-amino-2-methyl-pyrimidin-4-yl)-pyridin-3-yl]-amide]
< 1000 nM: all assays above

Cc1ccc(-c2ccc(N)c(C(=O)Nc3cnccc3-c3cc(N)nc(C)n3)n2)c(F)c1 [Example 558, 3-Amino-6-(2-fluoro-4-methyl-phenyl)-pyridine-2-carboxylic acid [4-(6-amino-2-methyl-pyrimidin-4-yl)-pyridin-3-yl]-amide]
< 1000 nM: all assays above

Cc1nc(N)cc(-c2ccncc2NC(=O)c2nc(-c3ccccc3)ccc2N)n1 [Example 559, 3-Amino-6-phenyl-pyridine-2-carboxylic acid [4-(6-amino-2-methyl-pyrimidin-4-yl)-pyridin-3-yl]-amide]
< 1000 nM: all assays above

Cc1cc(-c2ccncc2NC(=O)c2nc(-c3cc(C(=O)NC(C)C)ccc3F)c(F)cc2N)nc(N)n1 [Example 560, 3-Amino-5-fluoro-6-(2-fluoro-5-isopropylcarbamoyl-phenyl)-pyridine-2-carboxylic acid [4-(2-amino-6-methyl-pyrimidin-4-yl)-pyridin-3-yl]-amide]
< 1000 nM: all assays above

Cc1nc(N)cc(-c2ccncc2NC(=O)c2nc(-c3cc(C(=O)N(C)C)ccc3F)c(F)cc2N)n1 [Example 561, 3-Amino-6-(5-dimethylcarbamoyl-2-fluoro-phenyl)-5-fluoro-pyridine-2-carboxylic acid [4-(6-amino-2-methyl-pyrimidin-4-yl)-pyridin-3-yl]-amide]
< 1000 nM: all assays above

CCCOc1ccc(F)c(-c2ccc(N)c(C(=O)Nc3cnccc3-c3cc(C)nc(N)n3)n2)c1F [Example 562, 3-Amino-6-(2,6-difluoro-3-propoxy-phenyl)-pyridine-2-carboxylic acid [4-(2-amino-6-methyl-pyrimidin-4-yl)-pyridin-3-yl]-amide]
< 1000 nM: all assays above

Cc1cc(-c2ccncc2NC(=O)c2nc(-c3cc(C(=O)NC(C)C)ccc3F)ccc2N)nc(N)n1 [Example 563, 3-Amino-6-(2-fluoro-5-isopropylcarbamoyl-phenyl)-pyridine-2-carboxylic acid [4-(2-amino-6-methyl-pyrimidin-4-yl)-pyridin-3-yl]-amide]
< 1000 nM: all assays above

Cc1cc(-c2ccncc2NC(=O)c2nc(-c3cc(C(=O)N(C)C)ccc3F)ccc2N)nc(N)n1 [Example 564, 3-Amino-6-(5-dimethylcarbamoyl-2-fluoro-phenyl)-pyridine-2-carboxylic acid [4-(2-amino-6-methyl-pyrimidin-4-yl)-pyridin-3-yl]-amide]
< 1000 nM: all assays above

CCCNC(=O)c1ccc(F)c(-c2ccc(N)c(C(=O)Nc3cnccc3-c3cc(N)nc(C)n3)n2)c1 [Example 565, 3-Amino-6-(2-fluoro-5-propylcarbamoyl-phenyl)-pyridine-2-carboxylic acid [4-(6-amino-2-methyl-pyrimidin-4-yl)-pyridin-3-yl]-amide]
< 1000 nM: all assays above

Nc1ccc(-c2cccc(CN3CCOCC3)c2)nc1C(=O)Nc1cnccc1N1CCC[C@H](N)C1 [Example 566, 3-Amino-6-(3-morpholin-4-ylmethyl-phenyl)-pyridine-2-carboxylic acid (3-amino-3,4,5,6-tetrahydro-2H-[1,4′]bipyridinyl-3′-yl)-amide]
< 1000 nM: all assays above

Nc1ccc(-c2ccc(CN3CCOCC3)cc2)nc1C(=O)Nc1cnccc1N1CCC[C@H](N)C1 [Example 567, 3-Amino-6-(4-morpholin-4-ylmethyl-phenyl)-pyridine-2-carboxylic acid (3-amino-3,4,5,6-tetrahydro-2H-[1,4′]bipyridinyl-3′-yl)-amide]
< 1000 nM: all assays above

N[C@H]1CCCN(c2ccncc2NC(=O)c2nc(-c3ccccc3)ccc2F)C1 [Example 568, 3-Fluoro-6-phenyl-pyridine-2-carboxylic acid (3-amino-3,4,5,6-tetrahydro-2H-[1,4′]bipyridinyl-3′-yl)-amide]
< 1000 nM: all assays above

CC(C)NC(=O)c1ccc(F)c(-c2ccc(F)c(C(=O)Nc3cnccc3N3CCC[C@H](N)C3)n2)c1 [Example 569, 3-Fluoro-6-(2-fluoro-5-isopropylcarbamoyl-phenyl)-pyridine-2-carboxylic acid (3-amino-3,4,5,6-tetrahydro-2H-[1,4′]bipyridinyl-3′-yl)-amide]
< 1000 nM: all assays above

N[C@H]1CCCN(c2ccncc2NC(=O)c2nc(-c3ccccc3F)ccc2F)C1 [Example 571, 3-Fluoro-6-(2-fluoro-phenyl)-pyridine-2-carboxylic acid (3-amino-3,4,5,6-tetrahydro-2H-[1,4′]bipyridinyl-3′-yl)-amide]
< 1000 nM: all assays above
